On the set-up of data set [1]: method as in earlier work. The conditions noted are these: humans, based on studies in pigs; cited from earlier work.
Another data set concerns piglets. The data set can be described thus: Observation of clinical symptoms in treated piglets. It counts as in vivo, pigs. The conditions noted are these: single orogastric bolus, 10 µg/kg b.w. ZEN or equimolar dose, four piglets. As to the method: For animal welfare considerations, amounts of administered toxins were chosen on the basis of no-observed-effect-levels of 10 µg/kg body weight per day for oral application in pigs. In short, four piglets received a single orogastric bolus of ZEN (10 µg/kg b.w.) and of its plant or fungal metabolites (at equimolar dose), respectively, using a repeated measures design.
Using a repeated measures design, the piglets (n = 4) received water (negative control), ZEN (10 µg/kg b.w.; positive control) and the equimolar dose of ZEN-14-S (12.5 µg/kg b.w.), ZEN-16-Glc (15.1 µg/kg b.w.) and ZEN-14-Glc (15.1 µg/kg b.w.) per gavage (orogastric application) on day 1, 3, 7, 11, and 15 of the experiment, respectively. From the stock solutions containing between 991 (ZEN-14-S) and 1274 (ZEN-14-Glc) µg/mL of the analytes the adequate volumes for the animal experiment were removed and diluted with water for the oral application to obtain 5 µg/mL ZEN and the equimolar concentration of the other analytes in the aqueous stock solutions. […] Urine and feces of each of the piglets were quantitatively collected for the periods 0–24 h and 24–48 h after dosing. Urine was measured volumetrically on site and all excreta samples were stored at −20 °C until lyophilization (feces) or sample preparation and analysis (urine). […]

For data set [2] the following is noted: pigs, cited from earlier work.
Data set [3] in a line: Excretion and biological recovery of ZEN and its metabolites in urine and feces of piglets after a single oral bolus (HPLC-MS/MS). The data set is classed as in vivo, pigs. The conditions noted are these: for Hydrolysis in the gastrointestinal tract of pigs: oral application, conclusion from excreta analysis. As to the method: Four castrated male weaning piglets (sow: Landrace × Large White, boar: Pietrain; 33–35 days old, 7.9 ± 0.6 kg) were obtained from a local producer in Lower Austria. Animals were housed separately in metabolic cages in total for 22 days and were allowed to acclimatize for five days before the start of the experiment. They had free access to water and feed was provided twice per day (semi ad libitum). The diet was analyzed for its concentration of ZEN and naturally occurring metabolites thereof.
Using a repeated measures design, the piglets (n = 4) received water (negative control), ZEN (10 µg/kg b.w.; positive control) and the equimolar dose of ZEN-14-S (12.5 µg/kg b.w.), ZEN-16-Glc (15.1 µg/kg b.w.) and ZEN-14-Glc (15.1 µg/kg b.w.) per gavage (orogastric application) on day 1, 3, 7, 11, and 15 of the experiment, respectively. From the stock solutions containing between 991 (ZEN-14-S) and 1274 (ZEN-14-Glc) µg/mL of the analytes the adequate volumes for the animal experiment were removed and diluted with water for the oral application to obtain 5 µg/mL ZEN and the equimolar concentration of the other analytes in the aqueous stock solutions. Using polyvinyl chloride catheters (diameter 4.7 mm, Ch 14, mpö pfm GesmbH (Klagenfurt, Austria), length was adapted to the size of the esophagus of the piglets), volumes between 16 and 30 mL of the aqueous stock solutions were orally administered to the piglets, considering the piglets’ weight. After the toxin application, 10 mL of water was used to flush the catheter. Urine and feces of each of the piglets were quantitatively collected for the periods 0–24 h and 24–48 h after dosing. Urine was measured volumetrically on site and all excreta samples were stored at −20 °C until lyophilization (feces) or sample preparation and analysis (urine). The general condition of the animals was observed daily during the experiment.
Urine samples were diluted 1:5000 with water and the creatinine content was determined by LC-MS/MS as described earlier. For determination of ZEN, its plant and fungal metabolites and their metabolites in pigs, urine samples were diluted to 0.2 mM creatinine with water and centrifuged prior to HPLC-MS/MS analysis.
Five-hundred milligram aliquots of freeze-dried and thoroughly homogenized feces samples were extracted three times (90/30/30 min) with 5 mL each of ACN/water (50/50, v/v) on a GFL rotary shaker (type 3017, Burgwedel, Germany). After each extraction step, samples were clarified by centrifugation (10 min, 12,500 rpm, GS-15 centrifuge, Beckman Coulter, Indianapolis, IN, USA). Aliquots of the pooled supernatants were centrifuged and measured by HPLC-MS/MS.
Analysis of the feces and urine samples was performed on a 1290 Infinity series UHPLC system (Agilent Technologies, Waldbronn, Germany) coupled to a 6500 QTrap mass spectrometer equipped with an IonDrive TurboV source (Sciex, Foster City, CA, USA). Analyst software version 1.6.2 (Sciex, Foster City, CA, USA) was used for instrument control and data analysis. Chromatographic separation was carried out on a Kinetex Biphenyl column (150 mm × 3 mm, 2.6 µm, Phenomenex, Aschaffenburg, Germany). Eluent A consisted of water/acetic acid (99.9/0.1, v/v), eluent B was composed of ACN/acetic acid (99.9/0.1, v/v). […] At 14 min, 100% was reached which was held until 16.9 min. Afterwards, the column was re-equilibrated at 15% B for 3 min, resulting in a total run time of 20 min. The flow rate was 400 µL/min, the column temperature was 30 °C and the injection volume was 2 µL. Mass spectrometric detection was performed in negative electrospray ionization mode and selected reaction monitoring (SRM) was applied as scan type. The source settings were as follows: source temperature 400 °C, ion spray voltage −4500 V, curtain gas 35 psi (ca. 240 kPa), ion source gas 1 at 55 psi (ca. 379 kPa) and gas 2 at 65 psi (ca. 448 kPa), collision gas (nitrogen) high. […]

For data set [4] the following is noted: difference of hydrolyzed and untreated urine; cited from earlier work.
In a further data set the test system is human estrogen receptor. Also on record: method as in PMID 16751557. The conditions noted are these: cited from earlier work.
Details of data set [5]: method as in PMID 27856298. The conditions noted are these: in vitro; cited from earlier work.
For data set [6], the system named is human intestinal bacteria. Details: method as in PMID 23347206. The conditions noted are these: human in vitro model; cited from earlier work.
The next data set concerns human Caco-2/TC7 cells. The conditions noted are these: after six and 24 h; cited from earlier work.
For data set [7] the following is noted: oral dose, cited from earlier work; for Recovery in rats: rats (ZEN-14-Glc as ZEN equivalents).
On the set-up of data set [8]: method as in PMID 2143610. The conditions noted are these: contaminated feed, one pig; cited from earlier work.
Data set [9] concerns human breast cancer cells (MCF7). Details: method as in PMID 26792714. The conditions noted are these: MCF7 including fetal bovine serum; cited from earlier work.
The next data set has as its system human gut microbiota. The conditions noted are these: cited from earlier work; for Share hydrolyzed after incubation with human gut microbiota: four hours; for Dose converted to unidentified metabolites / not recovered as identified metabolites / Dose detected as the aglycone (ZEN, α-ZEL or β-ZEL): incubation with human gut microbiota.
In a further data set the test system is uterus weight. Also on record: method as in PMID 1827972. The conditions noted are these: intragastric, rats n = 6 per treatment; cited from earlier work.
In data set [10] the test system is intestinal bacteria from human fecal slurry. Also on record: method as in PMID 24386883. The conditions noted are these: cited from earlier work.
The mark [11] stands for this setting: after oral administration, piglets.
Where [12] appears, read: urine samples after oral administration, piglets.

“Also recorded” adds a separate entry of the source.

Take `C[C@H]1CCCC(=O)CCC/C=C/c2cc(O)cc(O)c2C(=O)O1` [ZEN, zearalenone]: the “Tolerable daily intake (TDI)” value in data set [1] is listed as 0.25 µg/kg b.w. Besides, the “Clinical symptoms during and after treatment” value with piglets is given as “no clinical symptoms were observed”. Moreover, the “Mean percentage of ingested ZEN excreted into urine” value in [2] (24 h after application) is listed as 28.4%. Also, in data set [2] (intravenous), the “Biological recovery of intravenously administered ZEN” value is 77% and the “Part eliminated via urine within 12 h” value is listed as 44%. Moreover, in data set [2] (intravenously administered), the Terminal elimination half-life is 2.63 h. Besides, the “Biological recovery of orally administered radiolabeled ZEN” value in data set [2] (oral, after 48 h) is 67%. Moreover, the “Radioactive ZEN excreted in bile that was reabsorbed into the systemic blood system” value in [2] is given as “about 85%”. For the same compound, the “Detection of β-ZEL in urine and feces” value in [3] (setting [11]) was “neither be detected in urine nor in feces samples”. Moreover, in [4], the “Glucuronidation in pig urine” value was 27% and the Glucuronidation in urine is on record as 23%.
For the compound `C[C@H]1CCCC(=O)CCC/C=C/c2cc(O[C@@H]3O[C@H](CO)[C@@H](O)[C@H](O)[C@H]3O)cc(O)c2C(=O)O1` [ZEN-14-Glc, zearalenone-14-O-β-glucoside], the “Interaction with the human estrogen receptor” value in the data set on human estrogen receptor is “interrupted”. The “Hydrolysis in bovine serum, plasma and whole blood” value in data set [5] was “in vitro hydrolysis of ZEN-14-Glc and release of ZEN”. Also, the “Hydrolysis upon incubation with human intestinal bacteria” value in [6] is “completely hydrolyzed within 30 min”. Moreover, the “Amount detected in the basolateral compartment” value with human Caco-2/TC7 cells is “only traces”. For the same compound, the Recovery in rats in [7] is given as 71%. Also, the “Hydrolysis in the GI tract of rats” value in data set [7] (rats) is reported as “partly hydrolyzed in the upper part of the GI tract”. The “Detection of the intact administered conjugate in urine and feces” value in [3] (setting [11]) was “none of the glucosides could be detected in urine or feces”. Moreover, in data set [3] (after oral administration, piglets, listed as ZEN-14-O-β-glucoside), the “Detection of the intact administered conjugate in urine and feces” value is given as “neither detected in urine nor in feces”. Also, the “Hydrolysis in the gastrointestinal tract of pigs” value (“Hydrolysis … of pigs” below) in data set [3] is reported as “readily hydrolyzed to ZEN”. For the same compound, the “Hydrolysis … of pigs” value in [3] (listed as ZEN-14-O-β-glucoside) is recorded as “completely hydrolyzed”. Besides, the “Metabolization during digestion in the pig” value in data set [8] was “completely metabolized to ZEN and α-ZEL”. The “Conversion by MCF7 cells” value in data set [9] was “convert ZEN-14-Glc to ZEN, α-ZEL and β-ZEL”. Besides, in the data set on human gut microbiota, the “Share hydrolyzed after incubation with human gut microbiota” value (shortened to “Share hydrolyzed after incubation”) is listed as “over 97%”; the “Dose converted to unidentified metabolites / not recovered as identified metabolites” value is 50%; the “Dose detected as the aglycone (ZEN, α-ZEL or β-ZEL)” value (shortened to “Dose detected as the aglycone”) is listed as 40%.
`C[C@H]1CCCC(=O)CCC/C=C/c2cc(OS(=O)(=O)O)cc(O)c2C(=O)O1` [ZEN-14-S, zearalenone-14-sulfate]: the “Hydrolysis upon incubation with human intestinal bacteria” value in [6] is listed as “completely hydrolyzed within 30 min”. In addition, the “Estrogenic activity (effect on uterus weight)” value in the data set on uterus weight was “partially retained the estrogenic activities of ZEN”. For the same compound, the “Detection of the intact administered conjugate in urine and feces” value was “neither detected in urine nor in feces samples” in data set [3] (setting [11]) and “neither detected in urine nor in feces” in data set [3] (after oral administration, piglets, listed as ZEN-14-sulfate). In addition, the “ZEN metabolites in feces” value in [3] (after oral application, piglets, listed as ZEN-14-sulfate) was “no ZEN metabolites were detected”. The results for the “Hydrolysis … of pigs” value in [3] and in [3] (listed as ZEN-14-sulfate) were “rapidly hydrolyzed; also recorded: readily hydrolyzed to ZEN” and “completely hydrolyzed”, respectively. The “Concentration of ZEN in urine” value in data set [3] (second sampling period (24–48 h), piglets) is “Only traces”. Further, the “Concentration of α-ZEL in urine” value in data set [3] (setting [12]) was “traces”.
`C[C@H]1CCCC(=O)CCC/C=C/c2cc(O)cc(O[C@@H]3O[C@H](CO)[C@@H](O)[C@H](O)[C@H]3O)c2C(=O)O1` [ZEN-16-Glc, zearalenone-16-O-β-glucoside]: the “Residue in the fecal slurry” value in data set [10] (after two hours) was “no residue”. Besides, the “Conversion by intestinal bacteria from human fecal slurry” value in [10] (within 30 min) is “nearly completely converted to ZEN within 30 min”. Besides, the “Detection of the intact administered conjugate in urine and feces” value in data set [3] (setting [11]) is listed as “none of the glucosides could be detected in urine or feces”; in data set [3] (after oral administration, piglets, listed as ZEN-16-O-β-glucoside), “neither detected in urine nor in feces”. Besides, the “Hydrolysis … of pigs” value in data set [3] is reported as “readily hydrolyzed to ZEN”; in data set [3] (listed as ZEN-16-O-β-glucoside), “completely hydrolyzed”. In data set [3] (setting [12]), the “Concentration of ZEN-14-GlcA in urine” value is “traces”.
As for `[13CH3][13C@H]1[13CH2][13CH2][13CH2][13C](=O)[13CH2][13CH2][13CH2]/[13CH]=[13CH]/[13c]2[13cH][13c](O)[13cH][13c](O)[13c]2[13C](=O)O1` [^13C-labeled ZEN], the Recovery in rats in [7] is 74%.
For `C[C@H]1CCC[C@H](O)CCC/C=C/c2cc(O)cc(O)c2C(=O)O1` [α-ZEL, α-zearalenol], in data set [4], the “Glucuronidation in pig urine” value is 88% and the Glucuronidation in urine was 75%.
With `CC1CCCC(O)CCCC=Cc2cc(OC3OC(CO)C(O)C(O)C3O)cc(O)c2C(=O)O1` (stereo not drawn) [α-ZEL-14-Glc], the “Amount detected in the basolateral compartment” value with human Caco-2/TC7 cells is “only traces”. In the data set on human gut microbiota, the “Share hydrolyzed after incubation” value is reported as “over 97%”; the “Dose converted to unidentified metabolites / not recovered as identified metabolites” value was 40%; the “Dose detected as the aglycone” value is recorded as 60%.
Regarding `C[C@H]1CCC[C@@H](O)CCC/C=C/c2cc(O)cc(O)c2C(=O)O1` [β-ZEL, β-zearalenol], in data set [4], the “Glucuronidation in pig urine” value was 94% and the Glucuronidation in urine is 56%.
Consider `C[C@H]1CCC[C@@H](O)CCC/C=C/c2cc(O[C@@H]3O[C@H](CO)[C@@H](O)[C@H](O)[C@H]3O)cc(O)c2C(=O)O1` [β-ZEL-14-Glc], for which, in the data set on human gut microbiota, the “Share hydrolyzed after incubation” value was “over 97%”; the “Dose converted to unidentified metabolites / not recovered as identified metabolites” value was 70%; the “Dose detected as the aglycone” value was 30%.
